Non-standard residues stand in square brackets, D forms with d. Residues, ends and D or L forms follow the SMILES beside them. dNMeCha = CN[C@H](CC1CCCCC1)C(=O)O
Assays:
[1] = Epimerization inhibition by sodium bisulfite (compound of Example 80, Step F); type: physicochemical; conditions: pH 7.4, 50° C.
Procedure: A 55.55 mM aqueous sodium phosphate solution (adjusted pH 7.4 with sodium hydroxide) was mixed with a 27.77 mM sodium bisulfite/27.77 mM sodium phosphate solution (adjusted pH 7.4 with sodium hydroxide) and water in various ratios to produce buffers containing 0,5.55, 16.66 and 27.77 mM sodium bisulfite. A 0.9 ml aliquot of each sodium bisulfite/phosphate buffer was added to separate 13×100 mm culture tubes and placed in a 50° C. Isotherm Tempblok® heater for 15 minutes. To each culture tube 0.1 ml of a 1 mg/ml aqueous solution of D-3-Piq-Pro-Arg-H.H2 SO4 (Example 80, Step F) was added and mixed well. […] These samples were allowed to react for 15 minutes at 90° C. and were then evaporated to dryness with nitrogen in a 55° C. N-Evap. The residue was dissolved in 1 ml of methanol and transferred to Varian Si BondElut SPE columns (1 ml) previously conditioned with 1 ml of water then 1 ml of methanol. The dissolved samples were pulled through solwly with a slight vacuum, and the sorbent layer was then washed with 2-1 ml volumes of methanol. The SPE columns were then dried at full vacuum (~25 in. Hg) and the compounds of interest were eluted with 300 μl of acetonitrile/100 mM sodium dodecyl sulfate (adjusted to pH 3 with phosphoric acid) (7:3, v/v) into 12×75 mm culture tubes. These eluates were analyzed by the HPLC system described below.
(§1) The mobile phase was acetonitrile/180 mM sodium dodecyl sulfate (adjusted to pH 3 with phosphoric acid) (85:15, v/v) pumped at 0.5 ml/min with a Shimadzu LC-10AD pump. The column was an Inertsil ODS(2) 150×3.0 mm maintained at 40° C. with a Jones Chromatography 7960 column heater. Twenty-five microliter injections were made with a Waters WISP 712 autosampler. Detection was accomplished with a Kratos 783 UV detector at 360 nm. The percentage of the DLD isomer was calculated using the peak areas of the DLL and DLD isomers in the chromatograms and the following equation: [formula]

[2] = Epimerization inhibition by sodium bisulfite (compound of Example 75); type: physicochemical; conditions: pH 7.4, 50° C.
Procedure: A 55.55 mM aqueous sodium phosphate solution (adjusted to pH 7.4 with sodium hydroxide) was mixed with an aqueous 27.77 mM sodium bisulfite/27.77 mM sodium phosphate solution (adjusted to pH 7.4 with sodium hydroxide) and water in various ratios to produce buffers containing 0, 5.55, 11.11, 16.66, 22.22 and 27.77 mM sodium bisulfite. A 0.9 ml aliquot of each sodium bisulfite/phosphate buffer was added to separate 13×100 mm culture tubes and placed in a 50° C. Tempblok® heater for 15 minutes. To each culture tube 0.1 ml of a 1 mg/ml aqueous solution of the compound of Example 75 was added and mixed well. […] These samples were allowed to react for 30 minutes at 60° C. and were then evaporated to dryness with nitrogen in a 55° C. N-Evap. The residue was dissolved in 1 ml of methanol and transferred to Varian Si BondElut SPE columns (1 ml) previously conditioned with 2 ml of water then 2 ml of methanol. The dissolved samples were pulled through slowly with a slight vaccum, and the sorbent layer was then washed with 2-1 ml volumes of methanol. The SPE columns were then dried at full vacuum (~25 in. Hg) then 500 μl of 500 mM potassium chloride was passed through the SPE columns. The compounds of interest were eluted with 300 μl of methanol/500 mM potassium chloride (1:1, v/v) into 12×75 mm culture tubes. These eluates were analyzed by the HPLC system described below.
as §1, with “acetonitrile/methanol/500” for “acetonitrile/180”, “ammonium acetate” for “sodium dodecyl sulfate (adjusted to”, “7 (3:3:4,” for “3 with phosphoric acid) (85:15,”, “1” for “0.5”, “a Zorbax SB-C8 150×4.6” for “an Inertsil ODS(2) 150×3.0”, “Fifty” for “Twenty-five”

N=C(N)NCCCC(C=O)NC(=O)C1CCCN1C(=O)C1CC2CCCCC2CN1.O=S(=O)(O)O [80 (Step F), D-3-(cis)Piq-Pro-Arg-H.H2 SO4]
Percentage of DLD Isomer ([1]; sodium bisulfite 0 mM, 0 hr): 4.84%
Percentage of DLD Isomer ([1]; sodium bisulfite 0 mM, 0.5 hr): 46.00%
Percentage of DLD Isomer ([1]; sodium bisulfite 0 mM, 1 hr): 49.42%
Percentage of DLD Isomer ([1]; sodium bisulfite 0 mM, 2 hr): 49.53%
Percentage of DLD Isomer ([1]; sodium bisulfite 0 mM, 3 hr): 50.16%
Percentage of DLD Isomer ([1]; sodium bisulfite 0 mM, 4 hr): 50.36%
Percentage of DLD Isomer ([1]; sodium bisulfite 0 mM, 6 hr): 49.71%
Percentage of DLD Isomer ([1]; sodium bisulfite 0 mM, 8 hr): 49.92%
Percentage of DLD Isomer ([1]; sodium bisulfite 5 mM, 0 hr): 4.23%
Percentage of DLD Isomer ([1]; sodium bisulfite 5 mM, 0.5 hr): 43.52%
Percentage of DLD Isomer ([1]; sodium bisulfite 5 mM, 1 hr): 48.99%
Percentage of DLD Isomer ([1]; sodium bisulfite 5 mM, 2 hr): 47.98%
Percentage of DLD Isomer ([1]; sodium bisulfite 5 mM, 3 hr): 49.89%
Percentage of DLD Isomer ([1]; sodium bisulfite 5 mM, 4 hr): 49.90%
Percentage of DLD Isomer ([1]; sodium bisulfite 5 mM, 6 hr): 49.80%
Percentage of DLD Isomer ([1]; sodium bisulfite 5 mM, 8 hr): 50.08%
Percentage of DLD Isomer ([1]; sodium bisulfite 15 mM, 0 hr): 4.16%
Percentage of DLD Isomer ([1]; sodium bisulfite 15 mM, 0.5 hr): 27.80%
Percentage of DLD Isomer ([1]; sodium bisulfite 15 mM, 1 hr): 40.63%
Percentage of DLD Isomer ([1]; sodium bisulfite 15 mM, 2 hr): 45.06%
Percentage of DLD Isomer ([1]; sodium bisulfite 15 mM, 3 hr): 45.72%
Percentage of DLD Isomer ([1]; sodium bisulfite 15 mM, 4 hr): 49.24%
Percentage of DLD Isomer ([1]; sodium bisulfite 15 mM, 6 hr): 49.63%
Percentage of DLD Isomer ([1]; sodium bisulfite 15 mM, 8 hr): 49.99%
Percentage of DLD Isomer ([1]; sodium bisulfite 25 mM, 0 hr): 3.71%
Percentage of DLD Isomer ([1]; sodium bisulfite 25 mM, 0.5 hr): 4.56%
Percentage of DLD Isomer ([1]; sodium bisulfite 25 mM, 1 hr): 5.14%
Percentage of DLD Isomer ([1]; sodium bisulfite 25 mM, 2 hr): 5.31%
Percentage of DLD Isomer ([1]; sodium bisulfite 25 mM, 3 hr): 5.79%
Percentage of DLD Isomer ([1]; sodium bisulfite 25 mM, 4 hr): 6.06%
Percentage of DLD Isomer ([1]; sodium bisulfite 25 mM, 6 hr): 6.39%
Percentage of DLD Isomer ([1]; sodium bisulfite 25 mM, 8 hr): 6.72%

CN[C@H](CC1CCCCC1)C(=O)N1CCC[C@H]1C(=O)N[C@H](C=O)CCCNC(=N)N.Cl [Example 75, N-methyl-D-cyclohexylalanyl-L-Prolinyl-L-Arginine Aldehyde Hydrochloride] (H-[dNMeCha]-Pro-Arg-aldehyde)
Percentage of DLD Isomer ([2]; sodium bisulfite 0 mM, 0 hr): 7.33%
Percentage of DLD Isomer ([2]; sodium bisulfite 0 mM, 0.5 hr): 31.91%
Percentage of DLD Isomer ([2]; sodium bisulfite 0 mM, 2 hr): 48.95%
Percentage of DLD Isomer ([2]; sodium bisulfite 0 mM, 3 hr): 50.21%
Percentage of DLD Isomer ([2]; sodium bisulfite 0 mM, 4 hr): 50.27%
Percentage of DLD Isomer ([2]; sodium bisulfite 0 mM, 6 hr): 50.03%
Percentage of DLD Isomer ([2]; sodium bisulfite 0 mM, 8 hr): 50.15%
Percentage of DLD Isomer ([2]; sodium bisulfite 0 mM, […]): 44.72%
Percentage of DLD Isomer ([2]; sodium bisulfite 5 mM, 0 hr): 7.35%
Percentage of DLD Isomer ([2]; sodium bisulfite 5 mM, 0.5 hr): 14.64%
Percentage of DLD Isomer ([2]; sodium bisulfite 5 mM, 2 hr): 34.64%
Percentage of DLD Isomer ([2]; sodium bisulfite 5 mM, 3 hr): 42.75%
Percentage of DLD Isomer ([2]; sodium bisulfite 5 mM, 4 hr): 47.21%
Percentage of DLD Isomer ([2]; sodium bisulfite 5 mM, 6 hr): 48.75%
Percentage of DLD Isomer ([2]; sodium bisulfite 5 mM, 8 hr): 49.61%
Percentage of DLD Isomer ([2]; sodium bisulfite 5 mM, […]): 24.74%
Percentage of DLD Isomer ([2]; sodium bisulfite 10 mM, 0 hr): 7.54%
Percentage of DLD Isomer ([2]; sodium bisulfite 10 mM, 0.5 hr): 10.79%
Percentage of DLD Isomer ([2]; sodium bisulfite 10 mM, 2 hr): 25.55%
Percentage of DLD Isomer ([2]; sodium bisulfite 10 mM, 3 hr): 35.08%
Percentage of DLD Isomer ([2]; sodium bisulfite 10 mM, 4 hr): 41.99%
Percentage of DLD Isomer ([2]; sodium bisulfite 10 mM, 6 hr): 50.73%
Percentage of DLD Isomer ([2]; sodium bisulfite 10 mM, 8 hr): 51.60%
Percentage of DLD Isomer ([2]; sodium bisulfite 10 mM, […]): 17.72%
Percentage of DLD Isomer ([2]; sodium bisulfite 15 mM, 0 hr): 8.37%
Percentage of DLD Isomer ([2]; sodium bisulfite 15 mM, 0.5 hr): 10.31%
Percentage of DLD Isomer ([2]; sodium bisulfite 15 mM, 2 hr): 21.41%
Percentage of DLD Isomer ([2]; sodium bisulfite 15 mM, 3 hr): 28.54%
Percentage of DLD Isomer ([2]; sodium bisulfite 15 mM, 4 hr): 35.26%
Percentage of DLD Isomer ([2]; sodium bisulfite 15 mM, 6 hr): 46.26%
Percentage of DLD Isomer ([2]; sodium bisulfite 15 mM, 8 hr): 50.58%
Percentage of DLD Isomer ([2]; sodium bisulfite 15 mM, […]): 15.19%
Percentage of DLD Isomer ([2]; sodium bisulfite 20 mM, 0 hr): 7.65%
Percentage of DLD Isomer ([2]; sodium bisulfite 20 mM, 0.5 hr): 9.90%
Percentage of DLD Isomer ([2]; sodium bisulfite 20 mM, 2 hr): 17.28%
Percentage of DLD Isomer ([2]; sodium bisulfite 20 mM, 3 hr): 23.70%
Percentage of DLD Isomer ([2]; sodium bisulfite 20 mM, 4 hr): 29.34%
Percentage of DLD Isomer ([2]; sodium bisulfite 20 mM, 6 hr): 43.32%
Percentage of DLD Isomer ([2]; sodium bisulfite 20 mM, 8 hr): 48.73%
Percentage of DLD Isomer ([2]; sodium bisulfite 20 mM, […]): 12.88%
Percentage of DLD Isomer ([2]; sodium bisulfite 25 mM, 0 hr): 8.16%
Percentage of DLD Isomer ([2]; sodium bisulfite 25 mM, 0.5 hr): 9.47%
Percentage of DLD Isomer ([2]; sodium bisulfite 25 mM, 2 hr): 14.78%
Percentage of DLD Isomer ([2]; sodium bisulfite 25 mM, 3 hr): 18.66%
Percentage of DLD Isomer ([2]; sodium bisulfite 25 mM, 4 hr): 24.34%
Percentage of DLD Isomer ([2]; sodium bisulfite 25 mM, 6 hr): 37.60%
Percentage of DLD Isomer ([2]; sodium bisulfite 25 mM, 8 hr): 46.26%
Percentage of DLD Isomer ([2]; sodium bisulfite 25 mM, […]): 11.42%
